The assay concerns the target T1, PagSP04 (Phlebotomus argentipes, UniProt Q0ZSU5).
T1 construct: secreted recombinant protein from HEK293S GnTI- cells (pTW5sec); IMAC and size exclusion
T1 sequence (Q0ZSU5 19-398): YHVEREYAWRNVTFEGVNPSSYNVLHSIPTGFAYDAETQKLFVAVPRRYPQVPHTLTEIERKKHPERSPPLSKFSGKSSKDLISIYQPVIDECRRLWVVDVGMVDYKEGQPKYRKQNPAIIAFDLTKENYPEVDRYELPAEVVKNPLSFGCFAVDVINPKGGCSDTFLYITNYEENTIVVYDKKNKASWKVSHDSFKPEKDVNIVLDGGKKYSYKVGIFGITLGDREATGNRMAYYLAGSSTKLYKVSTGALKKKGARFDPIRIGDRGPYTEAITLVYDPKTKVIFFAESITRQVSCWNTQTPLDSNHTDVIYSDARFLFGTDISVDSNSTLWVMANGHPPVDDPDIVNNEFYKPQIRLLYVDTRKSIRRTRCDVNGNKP
The assay is described as follows: microscale thermophoresis. The assay is classed as binding. The source says: microscale thermophoresis on PagSP04

The compound `NCCc1c[nH]cn1` [Histamine] had a Kd of 9.3 µM. As for `NCCc1c[nH]c2ccc(O)cc12` [Serotonin], the Kd was 0.0869 µM.

As a reminder, the Kd is the constant that tells how readily two partners part at equilibrium. A lower Kd goes with tighter binding.
